Results taken from patent publication US8088815B2, “Spiroindolinone pyrrolidines” (Hoffman-La Roche Inc., priority 2009, dated 2012).

Each compound was assayed against interaction between p53 and MDM2 proteins (Homo sapiens, UniProt Q00987) (assay: HTRF assay of inhibition of the p53-MDM2 interaction (GST-MDM2 / biotinylated p53 peptide)). Conditions: recombinant GST-tagged MDM2 and biotinylated p53 peptide, bsa:0.02%.
Type: binding
Description: The ability of the compounds to inhibit the interaction between p53 and MDM2 proteins was measured by an HTRF (homogeneous time-resolved fluorescence) assay in which recombinant GST-tagged MDM2 binds to a peptide that resembles the MDM2-interacting region of p53. Binding of GST-MDM2 protein and p53-peptide (biotinylated on its N-terminal end) is registered by the FRET (fluorescence resonance energy transfer) between Europium (Eu)-labeled anti-GST antibody and streptavidin-conjugated Allophycocyanin (APC).
Add 10 uL diluted compounds (1:5 dilution in reaction buffer) to each well, mix by shaking. Add 20 uL biotinylated p53 peptide (180 nM working solution) in reaction buffer to each well and mix on shaker. Incubate at 37° C. for 1 h. Add 20 uL streptavidin-APC and Eu-anti-GST antibody mixture (6 nM Eu-anti-GST and 60 nM streptavidin-APC working solution) in TBS buffer with 0.2% BSA, shake at room temperature for 30 minutes and read using a TRF-capable plate reader at
665 and 615 nm (Victor 5, Perkin ElmerWallac). If not specified, the reagents were purchased from Sigma Chemical Co.

interaction between p53 and MDM2 proteins, sequence (Q00987 whole entry): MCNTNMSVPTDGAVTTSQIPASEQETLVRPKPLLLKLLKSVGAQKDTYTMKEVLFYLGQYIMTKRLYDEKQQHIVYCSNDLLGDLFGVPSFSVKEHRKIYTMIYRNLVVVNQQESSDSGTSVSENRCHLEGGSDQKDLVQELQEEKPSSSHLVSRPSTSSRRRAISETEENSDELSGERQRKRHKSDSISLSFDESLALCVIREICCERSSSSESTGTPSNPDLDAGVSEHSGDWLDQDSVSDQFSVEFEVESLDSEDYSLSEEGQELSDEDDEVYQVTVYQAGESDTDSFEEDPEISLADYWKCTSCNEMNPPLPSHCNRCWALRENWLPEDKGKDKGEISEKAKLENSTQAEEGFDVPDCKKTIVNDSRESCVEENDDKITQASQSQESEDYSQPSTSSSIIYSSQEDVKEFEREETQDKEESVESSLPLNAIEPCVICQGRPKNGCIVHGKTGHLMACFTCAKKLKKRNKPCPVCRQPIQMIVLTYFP

Row | SMILES | IC50
1 | COc1cc(C(N)=O)ccc1NC(=O)[C@@H]1N[C@@H](CC(C)(C)C)[C@@]2(C(=O)Nc3cc(Cl)cc(F)c32)[C@H]1c1cccc(Cl)c1F (racemic) [Example 76, rac-(2′S,3′R,4′S,5′R)-6-chloro-4′-(3-chloro-2-fluoro-phenyl)-2′-(2,2-dimethyl-propyl)-4-fluoro-2-oxo-1,2-dihydro-spiro[indole-3,3′-pyrrolidine]-5′-carboxylic acid (4-carbamoyl-2-methoxy-phenyl)-amide] | 11 nM
2 | CC(C)(C)C[C@@H]1N[C@@H](C(=O)Nc2ccc(C(N)=O)cc2F)[C@H](c2cccc(Cl)c2F)[C@]12C(=O)Nc1cc(Cl)cc(F)c12 (racemic) [Example 79, rac-(2′S,3′R,4′S,5′R)-6-chloro-4′-(3-chloro-2-fluoro-phenyl)-2′-(2,2-dimethyl-propyl)-4-fluoro-2-oxo-1,2-dihydro-spiro[indole-3,3′-pyrrolidine]-5′-carboxylic acid (4-carbamoyl-2-fluoro-phenyl)-amide] | 13 nM
3 | CC(C)(C)C[C@@H]1N[C@@H](C(=O)Nc2ccc(C#N)cc2)[C@H](c2ccc(F)c(Cl)c2)[C@]12C(=O)Nc1cc(Cl)ccc12 (racemic) [Example 83, rac-(2′S,3′R,4′R,5′R)-6-chloro-4′-(3-chloro-4-fluoro-phenyl)-2′-(2,2-dimethyl-propyl)-2-oxo-1,2-dihydro-spiro[indole-3,3′-pyrrolidine]-5′-carboxylic acid (4-cyano-phenyl)-amide] | 34 nM
4 | CC(C)(C)C[C@@H]1N[C@@H](C(=O)Nc2ccc(C(N)=O)cc2)[C@H](c2ccc(F)c(Cl)c2)[C@]12C(=O)Nc1cc(Cl)ccc12 (racemic) [Example 84, rac-(2′S,3′R,4′R,5′R)-6-chloro-4′-(3-chloro-4-fluoro-phenyl)-2′-(2,2-dimethyl-propyl)-2-oxo-1,2-dihydro-spiro[indole-3,3′-pyrrolidine]-5′-carboxylic acid (4-carbamoyl-phenyl)-amide] | 15 nM
5 | CC(C)(C)C[C@@H]1N[C@@H](C(=O)Nc2ccc(C#N)cc2)[C@H](c2cc(F)cc(Cl)c2)[C@]12C(=O)Nc1cc(Cl)ccc12 (racemic) [Example 88, rac-(2′S,3′R,4′R,5′R)-6-chloro-4′-(3-chloro-5-fluoro-phenyl)-2′-(2,2-dimethyl-propyl)-2-oxo-1,2-dihydro-spiro[indole-3,3′-pyrrolidine]-5′-carboxylic acid (4-cyano-phenyl)-amide] | 13 nM
6 | CC(C)(C)C[C@@H]1N[C@@H](C(=O)Nc2ccc(C(N)=O)cc2)[C@H](c2cc(F)cc(Cl)c2)[C@]12C(=O)Nc1cc(Cl)ccc12 (racemic) [Example 89] | 13 nM
7 | CC(C)(C)C[C@@H]1N[C@@H](C(=O)Nc2ccc(C(N)=O)cc2)[C@H](c2cccc(Cl)c2F)[C@]12C(=O)Nc1cc(Br)ccc12 (racemic) [Example 94, rac-(2′S,3′R,4′S,5′R)-6-bromo-4′-(3-chloro-2-fluoro-phenyl)-2′-(2,2-dimethyl-propyl)-2-oxo-1,2-dihydro-spiro[indole-3,3′-pyrrolidine]-5′-carboxylic acid (4-carbamoyl-phenyl)-amide] | 12 nM
8 | CC(C)(C)C[C@@H]1N[C@@H](C(=O)Nc2ccc(C#N)cc2)[C@H](c2cccc(Br)c2F)[C@]12C(=O)Nc1cc(Cl)ccc12 (racemic) [Example 98, rac-(2′S,3′R,4′S,5′R)-4′-(3-bromo-2-fluoro-phenyl)-6-chloro-2′-(2,2-dimethyl-propyl)-2-oxo-1,2-dihydro-spiro[indole-3,3′-pyrrolidine]-5′-carboxylic acid (4-cyano-phenyl)-amide] | 18 nM
9 | CC(C)(C)C[C@@H]1N[C@@H](C(=O)Nc2ccc(C(N)=O)cc2)[C@H](c2cccc(Br)c2F)[C@]12C(=O)Nc1cc(Cl)ccc12 (racemic) [Example 99, rac-(2′S,3′R,4′S,5′R)-4′-(3-bromo-2-fluoro-phenyl)-6-chloro-2′-(2,2-dimethyl-propyl)-2-oxo-1,2-dihydro-spiro[indole-3,3′-pyrrolidine]-5′-carboxylic acid (4-carbamoyl-phenyl)-amide] | 18 nM
